According to patent US10399972B2, “Tricyclic compounds as inhibitors of mutant IDH enzymes” (Merck Sharp & Dohme Corp., priority 2015, dated 2019):

target: R132H mutant IDH1 enzyme (Homo sapiens (Human), UniProt O75874, R132H); test: R132H IDH1 Enzymatic Assay; assay type: biochemical; conditions: 1.5 nM final, 30 min preincubation, 60 min reaction, Kinase-GLO luminescence
Sequence (O75874 whole entry R132H): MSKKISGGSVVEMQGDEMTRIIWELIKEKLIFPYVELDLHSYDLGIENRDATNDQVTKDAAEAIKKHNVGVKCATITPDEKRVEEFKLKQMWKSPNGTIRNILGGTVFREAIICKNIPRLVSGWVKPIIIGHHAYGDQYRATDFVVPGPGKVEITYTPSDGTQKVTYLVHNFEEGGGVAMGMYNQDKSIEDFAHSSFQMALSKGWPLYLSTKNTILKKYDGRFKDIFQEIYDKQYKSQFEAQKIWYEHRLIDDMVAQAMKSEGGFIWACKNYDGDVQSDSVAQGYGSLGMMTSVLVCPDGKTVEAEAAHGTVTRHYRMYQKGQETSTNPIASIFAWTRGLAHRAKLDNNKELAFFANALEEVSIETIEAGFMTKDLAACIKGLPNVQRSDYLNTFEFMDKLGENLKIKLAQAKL

Structure (SMILES)	IC50 [nM]
CO[C@H]1C[C@H]2CC[C@@H](C1)N2c1ccc2c(c1)N(C(=O)[C@H]1CC[C@H](OC(C)C)CO1)Cc1cc(F)cnc1N2 [Example 39, (3-fluoro-8-((1R,3S,5S)-3-methoxy-8-azabicyclo[3.2.1]octan-8-yl)-5,11-dihydro-6H-benzo[b]pyrido[2,3-e][1,4]diazepin-6-yl)((2R,5S)-5-isopropoxytetrahydro-2H-pyran-2-yl)methanone]	10.4
CC(C)O[C@H]1CC[C@H](C(=O)N2Cc3cc(F)cnc3Nc3ccc(N4CC5CCC4CO5)cc32)CC1 (single isomer, unassigned) [Example 13, [3-fluoro-8-(2-oxa-5-azabicyclo[2.2.2]oct-5-yl)-5,11-dihydro-6H-pyrido[2,3-b][1,5]benzodiazepin-6-yl][trans-4-(propan-2-yloxy)cyclohexyl]methanone]	35.5
CC(C)O[C@H]1CC[C@H](C(=O)N2Cc3cccnc3Nc3ccc(N4CC5CCC4CO5)c(F)c32)CC1 (stereo partly drawn) [Example 63, [7-fluoro-8-(2-oxa-5-azabicyclo[2.2.2]oct-5-yl)-5,11-dihydro-6H-pyrido[2,3-b][1,5]benzodiazepin-6-yl](trans-4-isopropoxycyclohexyl)methanone]	57
COc1ccc2c(c1)N(C(=O)[C@H]1CC[C@H](OC(C)C)CC1)C(C)c1cccnc1N2 (stereo partly drawn) [Example 68, (Trans-4-isopropoxycyclohexyl)(8-methoxy-5-methyl-5,11-dihydro-6H-benzo[b]pyrido[2,3-e][1,4]diazepin-6-yl)methanone]	112
CO[C@H]1C[C@H]2CC[C@@H](C1)N2c1cc2c(cc1F)Nc1ncc(F)cc1CN2C(=O)[C@H]1CC[C@H](OC(C)C)CO1 [Example 47, (3,9-difluoro-8-((1R,3S,5S)-3-methoxy-8-azabicyclo[3.2.1]octan-8-yl)-5,11-dihydro-6H-benzo[b]pyrido[2,3-e][1,4]diazepin-6-yl)((2R,5S)-5-isopropoxytetrahydro-2H-pyran-2-yl)methanone]	15.8

More lines, now with the values ahead:

IC50 [nM]	Structure (SMILES)
21.7	O=C(C1CCN(CC(F)(F)F)CC1)N1Cc2cc(F)cnc2Nc2ccc(N3CC4CCC3CO4)cc21 (single isomer, unassigned) [Example 9, (8-(2-oxa-5-azabicyclo[2.2.2]octan-5-yl)-3-fluoro-5,11-dihydro-6H-benzo[b]pyrido[2,3-e][1,4]diazepin-6-yl)(1-(2,2,2-trifluoroethyl)piperidin-4-yl)methanone]
6.7	O=C(C1CCN(CC(F)(F)F)CC1)N1Cc2cc(F)cnc2Nc2cc(F)c(N3C[C@@H]4C[C@H]3CO4)cc21 [Example 20, (8-((1S,4S)-2-oxa-5-azabicyclo[2.2.1]heptan-5-yl)-3,9-difluoro-5,11-dihydro-6H-benzo[b]pyrido[2,3-e][1,4]diazepin-6-yl)(1-(2,2,2-trifluoroethyl)piperidin-4-yl)methanone]
87	CCS(=O)(=O)N1CCC(C(=O)N2Cc3cc(F)cnc3Nc3ccc(N4CC5CCC4CO5)cc32)CC1 (stereo not shown) [Example 43, (8-(2-oxa-5-azabicyclo[2.2.2]octan-5-yl)-3-fluoro-5,11-dihydro-6H-benzo[b]pyrido[2,3-e][1,4]diazepin-6-yl)(1-(ethylsulfonyl)piperidin-4-yl)methanone]
11.3	O=C(C1CCN(CC(F)(F)F)CC1)N1Cc2cc(F)cnc2Nc2cc(F)c(Cl)cc21 [Example 5, (8-Chloro-3,9-difluoro-5,11-dihydro-6H-benzo[b]pyrido[2,3-e][1,4]diazepin-6-yl)(1-(2,2,2-trifluoroethyl)piperidin-4-yl)methanone]
23.8	C[C@H]1CN(c2ccc3c(c2)N(C(=O)C2CCN(CC(F)(F)F)CC2)Cc2cc(F)cnc2N3)[C@@H](C)CO1 [Example 11, (8-((2S,5S)-2,5-dimethylmorpholino)-3-fluoro-5,11-dihydro-6H-benzo[b]pyrido[2,3-e][1,4]diazepin-6-yl)(1-(2,2,2-trifluoroethyl)piperidin-4-yl)methanone]
18.5	O=C(C1CCN(CC(F)(F)F)CC1)N1Cc2cc(F)cnc2Nc2ccc(N3[C@@H]4CO[C@H]5[C@@H]4OC[C@H]53)cc21 [Example 7, (3-fluoro-8-((3R,3aR,6R,6aR)-hexahydro-3,6-epiminofuro[3,2-b]furan-7-yl)-5,11-dihydro-6H-benzo[b]pyrido[2,3-e][1,4]diazepin-6-yl)(1-(2,2,2-trifluoroethyl)piperidin-4-yl)methanone]
12.1	O=C(C1CCN(CC(F)(F)F)CC1)N1Cc2cc(F)cnc2Nc2ccc(N3C[C@@H]4C[C@H]3CO4)cc21 [Example 6, (8-((1S,4S)-2-Oxa-5-azabicyclo[2.2.1]heptan-5-yl)-3-fluoro-5,11-dihydro-6H-benzo[b]pyrido[2,3-e][1,4]diazepin-6-yl)(1-(2,2,2-trifluoroethyl)piperidin-4-yl)methanone]
22.1	O=C(C1CCN(CC(F)(F)F)CC1)N1Cc2cc(F)cnc2Nc2ccc(N3CC4(CCCOC4)C3)cc21 [Example 12, (3-fluoro-8-(6-oxa-2-azaspiro[3.5]nonan-2-yl)-5,11-dihydro-6H-benzo[b]pyrido[2,3-e][1,4]diazepin-6-yl)(1-(2,2,2-trifluoroethyl)piperidin-4-yl)methanone]
